Laboratory results: publication PMC4750079, “Tackling amyloidogenesis in Alzheimer’s disease with A2V variants of Amyloid-β” (Scientific Reports, 2016)
Where a SMILES comes first, the peptide text is derived from it. [ ]: non-standard residue; d: D form.

Tests used:
APPswe/PS1dE9 mice [1] = assay: Serum IgG against Aβ peptides after chronic treatment (ELISA); format: in vivo, mouse; settings: once a week for 5 months, n = 9
Experimental: Figure 8 Serum levels of IgG against Aβ peptides after chronic treatment with Aβ1-6A2VTAT(D). To verify whether Aβ1-6A2VTAT(D) administration once a week for 5 months was associated with an immune response, we collected blood from mice before (T0) and at the end of the treatment (T2). Sera from saline (n = 8) and Aβ1-6A2VTAT(D) (n = 9) treated mice were tested induplicate using ELISA for the presence of IgG against Aβ1-6A2VTAT(D) (A), the full-length Aβ1-42 (B), Aβ1-6A2V (C) and TAT(D) (D).
Sera were collected from mice before (T0) and at the end of the treatment (5 months), and tested using ELISA for the presence of IgG against Aβ1-6A2VTAT(D), the full-length Aβ1-42, Aβ1-6A2V(D) and TAT(D) following previously described protocols for antigen-specific mouse IgG detection, except blocking buffer that was PBS 3% milk. Anti-Aβ1-42 IgG antibodies from 6E10 IgG clone (Covance), and sera from mice immunized with Aβ1-6A2VTAT(D) or with Aβ1-6A2V emulsified in Complete Freund’s adjuvant were used as positive controls.

APPswe/PS1dE9 mice [2] = assay: Treatment of APPswe/PS1dE9 mice; format: in vivo, mouse; settings: for amyloid burden (plaque count, area fraction): 4G8 immunohistochemistry
From the text: Heterozygous four-month-old female APPswe/PS1dE9 transgenic mice were used in this study. These mice express human APP carrying the Swedish mutation together with human presenilin 1 (PS1) carrying the pathogenic dE9 mutation. Animals were divided in 2 experimental groups (n = 10 each), treated i.p. once a week with saline solution or Aβ1-6A2VTAT(D) and culled 2.5 (intermediate time) and 5 months (final time) after treatment. In both mouse transgenic lines, the brain was removed and dissected into 2 hemibrains by midsagittal dissection. One half was immediately stored at […] for biochemical assays, the other immediately immersed in formalin (10%) overnight for immunohistochemical studies.
The Novel Object Recognition test (NOR) was used to examine the cognitive performance of animal models involved in preclinical studies, following well consolidated protocols. The results of the NOR were expressed by using:
- Discrimination index (time exploring novel object - time exploring familiar object)/(time exploring novel object + time exploring familiar object).
- Recognition index (RI): time exploring novel object/(time exploring novel object + time exploring familiar object) %.
The left hemisphere of each brain was homogenized in 7 volumes of 10 mM Tris-HCl, pH 7.4, added with cOmplete Mini Protease Inhibitors cocktail (Roche), sonicated for 1 min using an ultrasonic homogenizer (SONOPULS) and centrifuged at 100,000 xg for 1 h at 4 °C. The supernatant was saved as the soluble fraction; the pellet was extracted in 70% formic acid and neutralized with 20 volumes of 1 M Tris (insoluble fraction).
Aβ40, Aβ42 and aggregated Aβ were measured in both soluble and insoluble fractions by ELISA (Invitrogen). Each experiment was performed in triplicate. The analysis of APP processing followed the protocol described above. After centrifugation, the supernatant was collected as the SDS-soluble fraction, which was analyzed by western blot with the A8717 antibody (Sigma). Signal intensity of the bands was measured by Quantity One (BioRad).
Coronal slices of the right hemibrain were embedded in paraffin and cut (7μm); sections were de-waxed in xylene and hydrated through serial alcohols to water. After formic acid (80%) pre-treatment, sections were incubated overnight with anti-Aβ antibody (4G8, 1:4000; Covance). The primary antibody signal was detected with a biotinylated secondary antibody followed by horseradish streptavidin peroxidase and visualized with DAB. Amyloid deposition was quantified in mouse brain using Aβ immunostaining (4G8) and the staining intensity was evaluated semiquantitatively using a scale range from 0 to 5 by light microscopy. The assessment was conducted in two adjacent sections of the same brain area[49]. A parallel quantification of the Aβ plaque load was performed using image analysis software (NIS-elements-Nikon)[50][51][52].

Aβ1-42WT = target: T1, Aβ1-42WT (Homo sapiens, UniProt P05067); assay: Polarized light and electron microscopy of Aβ1-42WT aggregates; format: biochemical; settings: 20 days incubation, 37 °C, molar ratio 1:1 or 1:4
T1 construct: Aβ1-42WT oligomers were formed following incubation of Aβ1-42WT at a final concentration of 100 μM; made in house; host or cells: chemical synthesis (solid-phase Fmoc), no expression host
Experimental: Figure 3 Inhibition of aggregation of Aβ1-42WT by Aβ1-6A2VTAT(D). Polarized-light (A,B), electron microscopy (C,D) and atomic force microscopy (AFM) (E–H) studies showing the inhibitory effects of Aβ1-6A2VTAT(D) on amyloid formation, fibril production and oligomerization by Aβ1-42WT. In polarized-light and EM studies, both peptides were used at 0.125 mM, molar ratio = 1:1 or 1:4 respectively, with 20 days incubation. […] E,F: Representative Tapping mode of AFM images as determined by amplitude error data of Aβ1-42WT oligomers. Aβ1-42WT peptide 100 μM in phosphate buffer 50 mM, pH 7.4 was incubated at 4 °C for 24 h alone (E) (Z range: -10/ + 10 mV) or in presence of Aβ1-6A2VTAT(D) (F) (Z range: -10/ + 25 mV). The molar ratio of Aβ1-42WT to Aβ1-6A2VTAT(D) was 1:4. Scale bar: 1 μm, inset: 200 nm. (G,H): height plot profiles obtained along different lines traced on the topographic AFM images.
Aβ1-42WT, Aβ1-6A2VTAT(D) were dissolved in 10 mM NaOH and then diluted in an equal volume of 100 mM Tris-HCl, pH 7.0, to final concentrations (0.250 mM). […] The samples were incubated at 37 °C, and the tinctorial and ultrastructural properties of the peptide assemblies were determined at various intervals, ranging from 1 h to 20 days, as previously described. […]

[3] = i.p. 10 mg/kg once a week for 2.5 months, vs saline, ELISA
[4] = i.p. 10 mg/kg once a week for 5 months, vs saline

T1 sequence (P05067 672-713 limits assumed): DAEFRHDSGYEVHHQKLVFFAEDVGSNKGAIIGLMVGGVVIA

For `CC(C)[C@@H](NC(=O)[C@H](N)CC(=O)O)C(=O)N[C@H](CCC(=O)O)C(=O)N[C@H](Cc1ccccc1)C(=O)N[C@H](CCCNC(=N)N)C(=O)N[C@H](Cc1c[nH]cn1)C(=O)NCC(=O)NCC(=O)NCC(=O)NCC(=O)NCC(=O)N[C@H](CCCNC(=N)N)C(=O)N[C@H](CCCCN)C(=O)N[C@H](CCCCN)C(=O)N[C@H](CCCNC(=N)N)C(=O)N[C@H](CCCNC(=N)N)C(=O)N[C@H](CCC(N)=O)C(=O)N[C@H](CCCNC(=N)N)C(=O)N[C@H](CCCNC(=N)N)C(=O)N[C@H](CCCNC(=N)N)C(=O)O` [Aβ1-6A2VTAT(D)] (H-[dD][dV][dE][dF][dR][dH]GGGGG[dR][dK][dK][dR][dR][dQ][dR][dR][dR]-OH; N-terminus assumed), the “serum IgG against Aβ1-6A2V peptide” value (APPswe/PS1dE9 mice [1]) was “did not induce production of IgG”, the “serum IgG against Aβ1-6A2VTAT(D)” value (APPswe/PS1dE9 mice [1]) was “not negligible levels” and the “serum IgG against TAT(D)” value (APPswe/PS1dE9 mice [1]) was 3 out of 9 mice displayed slightly increased levels. For the same compound, the “serum IgG against full-length Aβ” value (APPswe/PS1dE9 mice [1]) was “not negligible levels”, the “effects on APP processing (C99:C83 ratio), short-term” value (APPswe/PS1dE9 mice [2]; after 2.5 months of treatment, western blot) was “not observed after short-term treatment schedules” and the “side effect on brain (neuropathologic studies)” value (APPswe/PS1dE9 mice [2]; chronic treatment, data not shown) was “did not result in any evident side effect on brain”. The “Novel Object Recognition test scores” value (APPswe/PS1dE9 mice [2]; i.p. 10 mg/kg once a week for 2.5 months) was “small, albeit not statistically significant, improvement”, the “amyloid burden (plaque count, area fraction)” value (APPswe/PS1dE9 mice [2]; i.p. 10 mg/kg once a week for 2.5 months, vs saline) was “reduction of amyloid burden” and the “brain Aβ40” value (APPswe/PS1dE9 mice [2]; [3]) was “not changed compared to controls”. The “brain Aβ42 in the insoluble fraction” value (APPswe/PS1dE9 mice [2]; [3]) was “concomitant decrease in the insoluble fraction”, the “brain Aβ42 in the soluble fraction” value (APPswe/PS1dE9 mice [2]; [3]) was “increase of Aβ42 in the soluble fraction” and the “brain aggregated Aβ, soluble and insoluble fraction” value (APPswe/PS1dE9 mice [2]; [3]) was “reduced in both the compartments”. For the same compound, the “Novel Object Recognition test, recognition and discrimination indexes” value (APPswe/PS1dE9 mice [2]; [4]) was “preserved cognitive function”, the “amyloid burden (plaque count, area fraction)” value (APPswe/PS1dE9 mice [2]; [4]) was “unexpectedly increased” and the “brain Aβ levels (Aβ40, Aβ42, aggregated Aβ)” value (APPswe/PS1dE9 mice [2]; i.p. 10 mg/kg once a week for 5 months, vs saline, ELISA) was “no significant difference compared to mice treated with saline solution”. The “C99:C83 ratio in brain (APP processing)” value (APPswe/PS1dE9 mice [2]; i.p. every 7 days for 5 months, western blot densitometry) was “increase in the C99:C83 ratio”, the “amount of fibrils generated by Aβ1-42WT (electron microscopy)” value (Aβ1-42WT) was “reduces the amount of fibrils generated by the full-length peptide” and the “formation of amyloid structures by Aβ1-42WT (polarized light)” value (Aβ1-42WT) was “hinders the formation of amyloid structures”.
